Assay results as given in paper PMC5218480 (PLoS ONE, 2017).

Tested on: MV-4-11 cells
Assay: Gene expression microarray analysis (Affymetrix PrimeView) and GSEA
Assay type: cell-based, human
Parameters: RFU PODN (11730768_x_at) / Fold change /veh PODN (11730768_x_at) / RFU LINC00158 (11744669_a_at) / Fold change /veh LINC00158 (11744669_a_at) / RFU DUSP10 (11751237_a_at) / Fold change /veh DUSP10 (11751237_a_at) / RFU ID3 (11757404_x_at) / Fold change /veh ID3 (11757404_x_at) / RFU PLEKHG5 (11737974_s_at) / Fold change /veh PLEKHG5 (11737974_s_at) / RFU LRRC4B (11730491_at) / Fold change /veh LRRC4B (11730491_at) / RFU GIMAP4 (11747438_a_at) / Fold change /veh GIMAP4 (11747438_a_at) / RFU KRT8 (11758183_x_at) / Fold change /veh KRT8 (11758183_x_at) / RFU CNN1 (11734310_a_at) / Fold change /veh CNN1 (11734310_a_at) / RFU VPS37D (11726825_at) / Fold change /veh VPS37D (11726825_at) / RFU C10orf10 (11716522_x_at) / Fold change /veh C10orf10 (11716522_x_at) / RFU KIR2DL2 /// KIR2DL4 /// KIR2DL5A /// KIR2DL5B /// KIR2DS1 /// KIR2DS2 /// KIR2DS3 /// KIR2DS4 /// KIR3DL3 /// KIR3DL3 /// KIR3DS1 (11738374_at) / Fold change /veh KIR2DL2 /// KIR2DL4 /// KIR2DL5A /// KIR2DL5B /// KIR2DS1 /// KIR2DS2 /// KIR2DS3 /// KIR2DS4 /// KIR3DL3 /// KIR3DL3 /// KIR3DS1 (11738374_at) / RFU C1QL1 (11718748_at) / Fold change /veh C1QL1 (11718748_at) / RFU TMPRSS4 (11747572_a_at) / Fold change /veh TMPRSS4 (11747572_a_at) / RFU HAMP (11756126_x_at) / Fold change /veh HAMP (11756126_x_at) / RFU RNFT2 (11725882_a_at) / Fold change /veh RNFT2 (11725882_a_at) / RFU NR4A2 (11747474_a_at) / Fold change /veh NR4A2 (11747474_a_at) / RFU ABCC12 (11746883_a_at) / Fold change /veh ABCC12 (11746883_a_at) / RFU TMEM136 (11760407_x_at) / Fold change /veh TMEM136 (11760407_x_at) / RFU CLDN22 /// WWC2 (11732394_at) / Fold change /veh CLDN22 /// WWC2 (11732394_at) / RFU HLA-DPB1 (11760878_x_at) / Fold change /veh HLA-DPB1 (11760878_x_at) / RFU SPINT1 (11716480_a_at) / Fold change /veh SPINT1 (11716480_a_at) / RFU GAP43 (11754022_s_at) / Fold change /veh GAP43 (11754022_s_at) / RFU A4GNT (11735810_at) / Fold change /veh A4GNT (11735810_at) / RFU PRB3 (11715151_x_at) / Fold change /veh PRB3 (11715151_x_at) / RFU TUBB4B (11761932_at) / Fold change /veh TUBB4B (11761932_at) / RFU CAPN14 (11732068_a_at) / Fold change /veh CAPN14 (11732068_a_at) / RFU TMCC2 (11721928_a_at) / Fold change /veh TMCC2 (11721928_a_at) / RFU IRGQ (11745062_a_at) / Fold change /veh IRGQ (11745062_a_at) / RFU FAM174B (11720279_a_at) / Fold change /veh FAM174B (11720279_a_at) / RFU TMPRSS4 (11748680_a_at) / Fold change /veh TMPRSS4 (11748680_a_at) / RFU FAM212B (11763350_a_at) / Fold change /veh FAM212B (11763350_a_at) / RFU PLEKHG5 (11743358_a_at) / Fold change /veh PLEKHG5 (11743358_a_at) / RFU ZSCAN30 (11745921_a_at) / Fold change /veh ZSCAN30 (11745921_a_at) / RFU CMKLR1 (11741424_a_at) / Fold change /veh CMKLR1 (11741424_a_at) / RFU LOC101060620 /// MAPK8IP1 (11723275_at) / Fold change /veh LOC101060620 /// MAPK8IP1 (11723275_at) / RFU SPTSSB (11747773_x_at) / Fold change /veh SPTSSB (11747773_x_at) / RFU PRSS12 (11739890_at) / Fold change /veh PRSS12 (11739890_at) / RFU BIN1 (11741810_x_at) / Fold change /veh BIN1 (11741810_x_at) / RFU WNT11 (11732464_a_at) / Fold change /veh WNT11 (11732464_a_at) / RFU C10orf10 (11716521_a_at) / Fold change /veh C10orf10 (11716521_a_at) / RFU C5orf56 (11738089_at) / Fold change /veh C5orf56 (11738089_at) / RFU CYB561 (11721691_x_at) / Fold change /veh CYB561 (11721691_x_at) / RFU ANKRD19P (11752326_a_at) / Fold change /veh ANKRD19P (11752326_a_at) / RFU OR2T12 /// OR2T33 /// OR2T8 (11738714_s_at) / Fold change /veh OR2T12 /// OR2T33 /// OR2T8 (11738714_s_at) / RFU VCAN (11748164_a_at) / Fold change /veh VCAN (11748164_a_at) / RFU JSRP1 (11732532_at) / Fold change /veh JSRP1 (11732532_at) / RFU KRTAP10-11 (11738290_x_at) / Fold change /veh KRTAP10-11 (11738290_x_at) / RFU MYO3A (11730013_a_at) / Fold change /veh MYO3A (11730013_a_at) / RFU EBF3 (11725865_a_at) / Fold change /veh EBF3 (11725865_a_at) / RFU CAMK2N1 (11719241_x_at) / Fold change /veh CAMK2N1 (11719241_x_at) / RFU C5orf56 (11738088_a_at) / Fold change /veh C5orf56 (11738088_a_at) / RFU OLFML3 (11715873_a_at) / Fold change /veh OLFML3 (11715873_a_at) / RFU LOC100653217 /// NTM (11731650_a_at) / Fold change /veh LOC100653217 /// NTM (11731650_a_at) / RFU MAPK11 (11762145_a_at) / Fold change /veh MAPK11 (11762145_a_at) / RFU FIZ1 (11724087_x_at) / Fold change /veh FIZ1 (11724087_x_at) / RFU OASL (11726364_x_at) / Fold change /veh OASL (11726364_x_at) / RFU SOX15 (11748057_x_at) / Fold change /veh SOX15 (11748057_x_at) / RFU CD79A (11719716_a_at) / Fold change /veh CD79A (11719716_a_at) / RFU HIST1H1D (11736915_at) / Fold change /veh HIST1H1D (11736915_at) / RFU CASKIN2 (11723855_a_at) / Fold change /veh CASKIN2 (11723855_a_at) / RFU LOC730098 (11760151_x_at) / Fold change /veh LOC730098 (11760151_x_at) / RFU OR4N2 (11742367_at) / Fold change /veh OR4N2 (11742367_at) / RFU PRRT2 (11749266_a_at) / Fold change /veh PRRT2 (11749266_a_at) / RFU SNX32 (11753110_a_at) / Fold change /veh SNX32 (11753110_a_at) / RFU CDHR5 (11726645_a_at) / Fold change /veh CDHR5 (11726645_a_at) / RFU RCAN1 (11760418_a_at) / Fold change /veh RCAN1 (11760418_a_at) / RFU FAM167A (11723789_a_at) / Fold change /veh FAM167A (11723789_a_at) / RFU FAM26E (11764081_at) / Fold change /veh FAM26E (11764081_at) / RFU ISYNA1 (11749810_s_at) / Fold change /veh ISYNA1 (11749810_s_at) / RFU ACY1 (11761880_at) / Fold change /veh ACY1 (11761880_at) / RFU 11764098_at / Fold change /veh 11764098_at / RFU SAMD14 (11745864_x_at) / Fold change /veh SAMD14 (11745864_x_at) / RFU NPB (11741838_a_at) / Fold change /veh NPB (11741838_a_at) / RFU TMPRSS6 (11731388_a_at) / Fold change /veh TMPRSS6 (11731388_a_at) / RFU KRTAP10-2 (11738614_at) / Fold change /veh KRTAP10-2 (11738614_at) / RFU ARHGAP8 /// PRR5-ARHGAP8 (11727945_x_at) / Fold change /veh ARHGAP8 /// PRR5-ARHGAP8 (11727945_x_at) / RFU KRTAP5-7 /// NADSYN1 (11734609_at) / Fold change /veh KRTAP5-7 /// NADSYN1 (11734609_at) / RFU RASL12 (11751679_a_at) / Fold change /veh RASL12 (11751679_a_at) / RFU CDKN2B (11736163_a_at) / Fold change /veh CDKN2B (11736163_a_at) / RFU PRF1 (11729649_at) / Fold change /veh PRF1 (11729649_at) / RFU, ZNF638 /// ZNF638-IT1 / Fold change vs veh, ZNF638 /// ZNF638-IT1 / RFU, PANK3 / Fold change vs veh, PANK3 / RFU, SH3YL1 / Fold change vs veh, SH3YL1 / RFU, ZEB2 / Fold change vs veh, ZEB2 / RFU, NRIP1 / Fold change vs veh, NRIP1 / RFU, PTTG1IP / Fold change vs veh, PTTG1IP / RFU, CAPN2 / Fold change vs veh, CAPN2 / RFU, MED14 / Fold change vs veh, MED14 / RFU, SNORA58 / Fold change vs veh, SNORA58 / RFU, C1orf63 / Fold change vs veh, C1orf63 / RFU, LRRFIP1 / Fold change vs veh, LRRFIP1 / RFU, NDUFAF7 / Fold change vs veh, NDUFAF7 / RFU, SLC12A2 / Fold change vs veh, SLC12A2 / RFU, IBTK / Fold change vs veh, IBTK / RFU, ESF1 / Fold change vs veh, ESF1 / Fold change vs veh, TMEM50B / RFU, TAOK1 / Fold change vs veh, TAOK1 / RFU, ACBD3 / Fold change vs veh, ACBD3 / RFU, TMA16 / Fold change vs veh, TMA16 / RFU, RWDD3 / Fold change vs veh, RWDD3 / RFU, BCAT1 / Fold change vs veh, BCAT1 / RFU, EDEM3 / Fold change vs veh, EDEM3 / RFU, TMEM33 / Fold change vs veh, TMEM33 / RFU, WDR75 / Fold change vs veh, WDR75 / RFU, AHCTF1 / Fold change vs veh, AHCTF1 / RFU, TFRC / Fold change vs veh, TFRC / RFU, ZDHHC17 / Fold change vs veh, ZDHHC17 / RFU, NOM1 / Fold change vs veh, NOM1 / RFU, ARL8B / Fold change vs veh, ARL8B / RFU, ZBTB11 / Fold change vs veh, ZBTB11 / RFU, TAMM41 / Fold change vs veh, TAMM41 / RFU, KIAA1704 /// LOC100996395 / Fold change vs veh, KIAA1704 /// LOC100996395 / RFU, ING1 / Fold change vs veh, ING1 / RFU, TRMT61B / Fold change vs veh, TRMT61B / RFU, FUBP3 / Fold change vs veh, FUBP3 / RFU, TP53 / Fold change vs veh, TP53 / RFU, TNKS2 / Fold change vs veh, TNKS2 / RFU, ZFP14 / Fold change vs veh, ZFP14 / RFU, ACTR2 / Fold change vs veh, ACTR2 / RFU, PPP3R1 / Fold change vs veh, PPP3R1 / RFU, PIK3R1 / Fold change vs veh, PIK3R1 / RFU, HNRNPA1 / Fold change vs veh, HNRNPA1 / RFU, RNF170 / Fold change vs veh, RNF170 / RFU, ZNF28 / Fold change vs veh, ZNF28 / RFU, RNGTT / Fold change vs veh, RNGTT / RFU, OGT / Fold change vs veh, OGT / RFU, BRD1 / Fold change vs veh, BRD1 / RFU, MARS / Fold change vs veh, MARS / RFU, ZNF655 / Fold change vs veh, ZNF655 / RFU, FAHD1 / Fold change vs veh, FAHD1 / RFU, BDP1 / Fold change vs veh, BDP1 / RFU, LRRCC1 / Fold change vs veh, LRRCC1 / RFU, ARID1A / Fold change vs veh, ARID1A / RFU, ZNF146 / Fold change vs veh, ZNF146 / RFU, ZNF330 / Fold change vs veh, ZNF330 / RFU, GPN3 / Fold change vs veh, GPN3 / RFU, C9orf123 / Fold change vs veh, C9orf123 / RFU, N4BP2L2 / Fold change vs veh, N4BP2L2 / RFU, ARFIP1 / Fold change vs veh, ARFIP1 / RFU, FAM179B / Fold change vs veh, FAM179B / RFU, BCL10 / Fold change vs veh, BCL10 / RFU, UHRF1BP1L / Fold change vs veh, UHRF1BP1L / RFU, BET1 / Fold change vs veh, BET1 / RFU, CNOT2 / Fold change vs veh, CNOT2 / RFU, ZNF268 / Fold change vs veh, ZNF268 / Fold change vs veh, ZNF507 / RFU, DGCR2 / Fold change vs veh, DGCR2 / RFU, WDSUB1 / Fold change vs veh, WDSUB1 / Fold change vs veh, HSP90B1 /// MIR3652 / RFU, ADSS / Fold change vs veh, ADSS / RFU, GK / Fold change vs veh, GK / RFU, ZNF148 / Fold change vs veh, ZNF148 / RFU, TAF9 / Fold change vs veh, TAF9 / RFU, SLC1A5 / Fold change vs veh, SLC1A5 / RFU, SLMO2 / Fold change vs veh, SLMO2 / RFU, ABCC4 / Fold change vs veh, ABCC4 / RFU, LOC101060439 /// RAP1B / Fold change vs veh, LOC101060439 /// RAP1B / RFU, RFX7 / Fold change vs veh, RFX7 / RFU, GTPBP10 / Fold change vs veh, GTPBP10 / RFU, CNEP1R1 / Fold change vs veh, CNEP1R1 / RFU, BIVM-ERCC5 /// ERCC5 / Fold change vs veh, BIVM-ERCC5 /// ERCC5 / RFU, ILF3 / Fold change vs veh, ILF3 / RFU 11762660_at / Fold change /veh 11762660_at / RFU VCAN (11757783_s_at) / Fold change /veh VCAN (11757783_s_at) / RFU DDX43 (11728927_at) / Fold change /veh DDX43 (11728927_at) / RFU KRT8 (11758188_x_at) / Fold change /veh KRT8 (11758188_x_at) / RFU NKD1 (11759106_at) / Fold change /veh NKD1 (11759106_at) / RFU SRD5A1 (11742802_a_at) / Fold change /veh SRD5A1 (11742802_a_at) / RFU TPSAB1 /// TPSB2 (11721975_s_at) / Fold change /veh TPSAB1 /// TPSB2 (11721975_s_at) / RFU GSTM3 (11746129_a_at) / Fold change /veh GSTM3 (11746129_a_at) / RFU IL23R (11737362_x_at) / Fold change /veh IL23R (11737362_x_at) / RFU TMEM51 (11727254_a_at) / Fold change /veh TMEM51 (11727254_a_at) / RFU PIWIL2 (11732686_x_at) / Fold change /veh PIWIL2 (11732686_x_at) / RFU ORM1 (11744905_x_at) / Fold change /veh ORM1 (11744905_x_at) / RFU CCDC152 (11743942_at) / Fold change /veh CCDC152 (11743942_at) / RFU ECM1 (11717891_a_at) / Fold change /veh ECM1 (11717891_a_at) / RFU IL23R (11748794_a_at) / Fold change /veh IL23R (11748794_a_at) / RFU TNFAIP8L3 (11732012_x_at) / Fold change /veh TNFAIP8L3 (11732012_x_at) / RFU MBOAT4 (11741988_at) / Fold change /veh MBOAT4 (11741988_at) / RFU 11764193_at / Fold change /veh 11764193_at / RFU TMEM53 (11763286_at) / Fold change /veh TMEM53 (11763286_at) / RFU MAGEB2 (11727129_at) / Fold change /veh MAGEB2 (11727129_at) / RFU TMEM200A (11744735_a_at) / Fold change /veh TMEM200A (11744735_a_at) / RFU CCDC152 (11751479_a_at) / Fold change /veh CCDC152 (11751479_a_at) / RFU FAM211A (11726209_a_at) / Fold change /veh FAM211A (11726209_a_at) / RFU RGS16 (11746705_a_at) / Fold change /veh RGS16 (11746705_a_at) / RFU VCAN (11755009_s_at) / Fold change /veh VCAN (11755009_s_at) / RFU RHOB (11743442_s_at) / Fold change /veh RHOB (11743442_s_at) / RFU RGS16 (11720943_a_at) / Fold change /veh RGS16 (11720943_a_at) / RFU RGS16 (11720944_at) / Fold change /veh RGS16 (11720944_at) / RFU, VPS4B / Fold change vs veh, VPS4B / RFU, CREB1 / Fold change vs veh, CREB1 / RFU, DNAJC13 / Fold change vs veh, DNAJC13 / RFU, GNAQ / Fold change vs veh, GNAQ / RFU, CDK5R1 / Fold change vs veh, CDK5R1 / RFU, ZRANB3 / Fold change vs veh, ZRANB3 / RFU, CUL4A / Fold change vs veh, CUL4A / RFU, CCNY / Fold change vs veh, CCNY / RFU, UFL1 / Fold change vs veh, UFL1 / RFU, COG3 / Fold change vs veh, COG3 / RFU, DIAPH2 / Fold change vs veh, DIAPH2 / RFU, SKA2 / Fold change vs veh, SKA2 / RFU, AFF3 / Fold change vs veh, AFF3 / RFU, LMF1 / Fold change vs veh, LMF1 / RFU, IPO11 / Fold change vs veh, IPO11 / RFU, DFFB / Fold change vs veh, DFFB / RFU, FOXP1 / Fold change vs veh, FOXP1 / RFU, CARD8 / Fold change vs veh, CARD8 / RFU, STRN3 / Fold change vs veh, STRN3 / RFU, ADK / Fold change vs veh, ADK / RFU, RASSF2 / Fold change vs veh, RASSF2 / RFU, WIPF1 / Fold change vs veh, WIPF1 / RFU, LARP1B / Fold change vs veh, LARP1B / RFU, RASA1 / Fold change vs veh, RASA1 / RFU, RB1 / Fold change vs veh, RB1 / RFU, PPFIA1 / Fold change vs veh, PPFIA1 / RFU, MAT2A / Fold change vs veh, MAT2A / RFU, CCT5 / Fold change vs veh, CCT5 / RFU, WDR92 / Fold change vs veh, WDR92 / RFU, CUX1 / Fold change vs veh, CUX1 / RFU, TTC7A / Fold change vs veh, TTC7A / RFU, TMEM135 / Fold change vs veh, TMEM135 / RFU, DEPTOR / Fold change vs veh, DEPTOR / RFU, CPM / Fold change vs veh, CPM / RFU, DNAJB6 / Fold change vs veh, DNAJB6 / RFU, CACNA2D3 / Fold change vs veh, CACNA2D3 / RFU, DTX4 / Fold change vs veh, DTX4 / RFU, TFCP2 / Fold change vs veh, TFCP2 / RFU, GMCL1 /// GMCL1P1 / Fold change vs veh, GMCL1 /// GMCL1P1 / RFU, AEBP2 / Fold change vs veh, AEBP2 / RFU, SNHG1 /// SNORD22 /// SNORD25 /// SNORD26 /// SNORD27 /// SNORD28 /// SNORD29 /// SNORD31 / Fold change vs veh, SNHG1 /// SNORD22 /// SNORD25 /// SNORD26 /// SNORD27 /// SNORD28 /// SNORD29 /// SNORD31 / Fold change (Aza/veh), C12orf56 (ProbeSet 11735607_a_at) / Fold change (ACY-1035/veh), C12orf56 (ProbeSet 11735607_a_at) / Fold change (Aza/veh), FGFR1OP (ProbeSet 11751329_s_at) / Fold change (ACY-1035/veh), FGFR1OP (ProbeSet 11751329_s_at) / Fold change (Aza/veh), VPS36 (ProbeSet 11739960_a_at) / Fold change (ACY-1035/veh), VPS36 (ProbeSet 11739960_a_at) / RFU SYPL1 (11715823_x_at) / Fold change /veh SYPL1 (11715823_x_at) / RFU IGFBP7 (11715501_s_at) / Fold change /veh IGFBP7 (11715501_s_at) / RFU REEP3 (11722064_at) / Fold change /veh REEP3 (11722064_at) / RFU IGLL1 (11728026_x_at) / Fold change /veh IGLL1 (11728026_x_at): dose or concentration left out as unconfirmed
Conditions: MV-4-11 cells, 48 hours

SMILES: Nc1ccc(-c2cccs2)cc1NC(=O)c1ccc2c(c1)cc(C1CC1)n2CCN1CCOCC1 [ACY-1035]
- Fold change /veh FAM26E (11764081_at): 0.88
